This is an account of results in paper PMC9736079, “ES-Screen: A Novel Electrostatics-Driven Method for Drug Discovery Virtual Screening” (International Journal of Molecular Sciences, 2022).

Structures are written as SMILES.

For experiment [1], the target named is human aldose reductase (AKR1B1) (Homo sapiens, UniProt P15121). The experiment in a line: Surface Plasmon Resonance (SPR) binding assay, immobilized protein. The following applies: for binding to immobilized AKR1B1 in SPR: 200, 100, 50, 25, 12 μM, triplicates. On the procedure:
(§1) Briefly, mouse extracellular domain 1–2 (EC 1–2) C-terminally cysteine-tagged FABP4 and Aldose Reductase recombinant protein was immobilized on flow cell (FC) 2 in HEPES buffered saline (10 mM Hepes, pH 7.4, and 150 mM NaCl, 3 mM CaCl2) using a thiol-coupling kit according to the manufacturer’s protocol, resulting in immobilization levels of 4580 response units (RU). FC1 was only activated and inactivated and used as a reference. […] Each injection was repeated three times for 60 s. FC1 signals were deducted from FC2 for background noise elimination.

The target in experiment [2] is T1, human adipocyte fatty acid-binding protein (FABP4) (Homo sapiens, UniProt P15090).
T1 sequence (P15090 2-132): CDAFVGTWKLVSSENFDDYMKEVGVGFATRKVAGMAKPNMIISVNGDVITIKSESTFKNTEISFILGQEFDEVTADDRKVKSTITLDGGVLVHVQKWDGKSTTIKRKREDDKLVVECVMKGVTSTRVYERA
Described as above. The following applies: for binding to immobilized FABP4 in SPR: 200, 100, 50, 25, 12 μM, triplicates. How it is done: as §1

The next experiment concerns the target T2, PIK3CG (Homo sapiens, UniProt P48736).
T2 construct: purchased Discoverx (Kinomescan)
The experiment in a line: Kinomescan active site-directed competition kinase binding assay. The conditions noted are these: read-out: Percent Control at 10 µM (Lower Numbers Indicate Stronger Hits). How it is done: (§2) Kinase assays were performed using Kinomescan, by Discoverx, CA, USA and Caliper LabChip 3000 by Caliper Life sciences, USA as described by us previously. The determination of Mebendazole (MBZ) thermodynamic binding affinities (Kd) to kinase targets predicted by ES-Screen was performed by using active site-directed competition binding. Kinase-tagged T7 phage strains were grown in parallel in 24-well blocks in an E. coli host derived from the BL21 strain. E. coli bacteria were grown to log-phase and infected with T7 phage from a frozen stock (multiplicity of infection = 0.4) and incubated with shaking at 32 °C until lysis (90–150 min). The lysates were centrifuged (6000× g) and filtered (0.2 μm sieves) to remove cell debris. The remaining kinases were produced in HEK-293 cells and subsequently tagged with DNA for qPCR detection. […] The liganded beads were blocked with excess biotin and washed with blocking buffer (SeaBlock (Pierce), 1% BSA, 0.05% Tween 20, 1 mM DTT) to remove unbound ligands and to reduce non-specific phage binding. Binding reactions were assembled by combining kinases, control liganded affinity beads, and mebendazole in 1× binding buffer (20% SeaBlock, 0.17 × PBS, 0.05% Tween 20, 6 mM DTT). Mebendazole was prepared as 40× stocks in 100% DMSO and directly diluted into the assay. All reactions were performed in polypropylene 384-well plates in a final volume of 0.04 mL. The assay plates were incubated at room temperature with shaking for 1 h and the affinity beads were washed with wash buffer (1 × PBS, 0.05% Tween 20). […] The kinase concentration in the eluates was measured by qPCR. Ligands that bind the kinase active site and directly prevent kinase binding to the immobilized ligand will reduce the amount of kinase captured. […] The amount of kinase captured in test versus control samples were measured by using a quantitative, precise and ultra-sensitive qPCR method that detects the associated DNA label. Using the primary screen binding interactions are reported as ‘% Ctrl’ (Percent kinase remaining activity, Equation (8)), where lower numbers indicate stronger hits. (8) Percent Control (%Ctrl)=Mebendazole signal − Positive control signal/DMSO Negative control signal − Positive control signal × 100
(§3) In a similar manner, binding constants (Kd) for mebendazole-kinase interactions are calculated by measuring the amount of kinase captured as a function of the mebendazole concentration in a dose response manner. […] Most Kds were determined using a starting concentration = 30,000 nM. […] Binding constants (Kd) were calculated with a standard dose–response curve (ligand dose (x-axis)—qPCR signal (y-axis)) using the Hill Equation (9), with the Hill Slope set to −1. […]

Another experiment concerns the target T3, RAF1 (Homo sapiens, UniProt P04049).
T3 construct: purchased Discoverx (Kinomescan)
Described as above. The following applies: read-out: Percent Control at 10 µM (Lower Numbers Indicate Stronger Hits). How it is done: as §2, §3

In the next experiment the target is T4, JAK2 (Homo sapiens, UniProt O60674).
T4 construct: purchased Discoverx (Kinomescan)
The description is as above. The conditions noted are these: read-out: Percent Control at 10 µM (Lower Numbers Indicate Stronger Hits). How it is done:
as §2, §3

Another experiment concerns the target T5, MKNK2 (Homo sapiens, UniProt Q9HBH9).
T5 construct: purchased Discoverx (Kinomescan)
The experiment is described as above. The following applies: read-out: Percent Control at 10 µM (Lower Numbers Indicate Stronger Hits). How it is done:
as §2, §3

T4 sequence (O60674 840-1132 limits assumed): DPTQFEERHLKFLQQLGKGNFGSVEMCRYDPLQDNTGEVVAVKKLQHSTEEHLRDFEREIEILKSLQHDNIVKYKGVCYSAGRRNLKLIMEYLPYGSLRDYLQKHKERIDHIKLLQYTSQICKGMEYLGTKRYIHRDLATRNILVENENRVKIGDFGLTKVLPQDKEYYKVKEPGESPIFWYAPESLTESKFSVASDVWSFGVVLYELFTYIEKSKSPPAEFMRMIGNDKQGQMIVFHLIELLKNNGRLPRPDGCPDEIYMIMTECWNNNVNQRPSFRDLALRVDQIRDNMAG
T5 sequence (Q9HBH9 whole entry): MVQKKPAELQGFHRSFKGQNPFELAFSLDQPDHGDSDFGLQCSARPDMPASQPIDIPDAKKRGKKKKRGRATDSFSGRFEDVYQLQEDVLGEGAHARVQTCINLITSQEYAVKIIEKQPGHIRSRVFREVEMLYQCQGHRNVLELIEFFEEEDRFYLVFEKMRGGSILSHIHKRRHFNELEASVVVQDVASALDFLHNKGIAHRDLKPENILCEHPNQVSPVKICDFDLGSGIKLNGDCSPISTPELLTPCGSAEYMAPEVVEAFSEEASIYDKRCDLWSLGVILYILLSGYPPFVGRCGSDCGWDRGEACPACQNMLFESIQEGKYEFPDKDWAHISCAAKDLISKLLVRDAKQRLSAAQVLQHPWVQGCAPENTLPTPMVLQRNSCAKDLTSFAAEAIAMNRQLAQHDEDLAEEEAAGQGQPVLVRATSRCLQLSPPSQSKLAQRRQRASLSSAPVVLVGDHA
T3 sequence (P04049 whole entry): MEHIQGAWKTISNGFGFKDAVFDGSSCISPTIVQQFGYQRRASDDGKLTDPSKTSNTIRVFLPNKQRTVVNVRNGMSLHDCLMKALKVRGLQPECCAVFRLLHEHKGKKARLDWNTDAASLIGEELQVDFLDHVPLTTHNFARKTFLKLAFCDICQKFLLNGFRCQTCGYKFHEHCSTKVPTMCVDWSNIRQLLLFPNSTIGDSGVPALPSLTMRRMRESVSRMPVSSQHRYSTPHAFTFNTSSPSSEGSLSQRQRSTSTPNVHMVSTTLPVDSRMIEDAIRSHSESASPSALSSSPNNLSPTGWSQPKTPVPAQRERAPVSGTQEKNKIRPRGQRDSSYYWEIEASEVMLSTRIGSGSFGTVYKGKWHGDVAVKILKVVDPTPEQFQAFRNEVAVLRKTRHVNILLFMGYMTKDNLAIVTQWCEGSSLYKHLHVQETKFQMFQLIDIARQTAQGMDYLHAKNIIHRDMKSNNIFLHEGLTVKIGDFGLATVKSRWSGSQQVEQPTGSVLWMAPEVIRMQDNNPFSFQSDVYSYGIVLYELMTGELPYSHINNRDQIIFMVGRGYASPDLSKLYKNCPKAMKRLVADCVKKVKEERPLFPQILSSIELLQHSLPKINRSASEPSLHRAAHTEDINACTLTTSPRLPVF
T2 sequence (P48736 whole entry): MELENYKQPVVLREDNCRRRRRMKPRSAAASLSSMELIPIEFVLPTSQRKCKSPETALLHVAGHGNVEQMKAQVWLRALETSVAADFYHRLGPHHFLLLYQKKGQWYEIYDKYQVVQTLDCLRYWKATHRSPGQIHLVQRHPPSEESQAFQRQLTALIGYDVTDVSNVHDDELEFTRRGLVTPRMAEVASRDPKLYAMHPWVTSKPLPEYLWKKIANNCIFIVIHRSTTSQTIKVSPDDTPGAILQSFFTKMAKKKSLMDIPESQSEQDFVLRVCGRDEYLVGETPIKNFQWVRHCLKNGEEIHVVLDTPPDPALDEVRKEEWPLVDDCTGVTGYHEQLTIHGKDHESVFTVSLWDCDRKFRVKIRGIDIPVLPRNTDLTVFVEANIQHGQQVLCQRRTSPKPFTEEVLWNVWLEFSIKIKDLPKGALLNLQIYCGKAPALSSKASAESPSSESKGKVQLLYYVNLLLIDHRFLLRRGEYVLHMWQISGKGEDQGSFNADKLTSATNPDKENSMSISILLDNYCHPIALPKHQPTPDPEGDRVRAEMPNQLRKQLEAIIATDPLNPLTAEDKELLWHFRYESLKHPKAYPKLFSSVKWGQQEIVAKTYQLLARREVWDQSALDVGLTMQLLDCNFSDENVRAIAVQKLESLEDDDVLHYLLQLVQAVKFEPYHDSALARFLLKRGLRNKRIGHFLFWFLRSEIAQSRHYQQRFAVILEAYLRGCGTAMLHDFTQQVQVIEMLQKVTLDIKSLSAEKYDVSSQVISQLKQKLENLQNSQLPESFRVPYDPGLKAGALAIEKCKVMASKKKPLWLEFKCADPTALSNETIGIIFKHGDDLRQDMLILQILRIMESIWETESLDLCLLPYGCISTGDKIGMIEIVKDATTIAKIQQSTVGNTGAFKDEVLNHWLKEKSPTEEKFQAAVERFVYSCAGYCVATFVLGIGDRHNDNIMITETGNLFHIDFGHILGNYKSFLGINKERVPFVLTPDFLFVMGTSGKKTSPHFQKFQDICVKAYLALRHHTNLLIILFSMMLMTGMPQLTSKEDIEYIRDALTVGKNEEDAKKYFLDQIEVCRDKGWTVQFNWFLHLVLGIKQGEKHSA

As to `CC1(C)Cc2c(-c3ccccc3)c(-c3ccc(Cl)cc3)c(CC(=O)O)n2C1` [licofelone], the “binding to immobilized AKR1B1 in SPR” value in experiment [1] is given as “in a dose-dependent manner”. Besides, the “binding to immobilized FABP4 in SPR” value in experiment [2] is reported as “in a dose-dependent manner”.

Consider `COc1ccc2c(c1)c(CC(=O)O)c(C)n2C(=O)c1ccc(Cl)cc1` [indomethacin], for which the “binding to immobilized AKR1B1 in SPR” value in experiment [1] is on record as “in a dose-dependent manner”. Moreover, the “binding to immobilized FABP4 in SPR” value in experiment [2] is “in a dose-dependent manner”.

On to `O=C(O)CCc1nc(-c2ccccc2)c(-c2ccccc2)o1` [oxaprozin], for which the “binding to immobilized AKR1B1 in SPR” value in experiment [1] was “in a dose-dependent manner”. Also, the “binding to immobilized FABP4 in SPR” value in experiment [2] is on record as “in a dose-dependent manner”.

For the molecule `COC(=O)Nc1nc2ccc(C(=O)c3ccccc3)cc2[nH]1` [mebendazole], the remaining binding at 10 µM came to 18% on PIK3CG, 23% on RAF1 and 46% on MKNK2. On JAK2, the percent of control kinase binding at 10 µM was found to be 39%. The “binding to immobilized AKR1B1 in SPR” value in experiment [1] was “bind directly, in a dose-dependent manner”. Further, the Kd in experiment [1] (SPR, AKR1B1, read-out: KD50) was determined as 5.5 µM; in experiment [2] (SPR, FABP4, read-out: KD50) it was 8.4 µM. Also, in experiment [2], the “binding to immobilized FABP4 in SPR” value is recorded as “bind directly, in a dose-dependent manner”.
